Assay results reported in EP4623911A1, “PI4KB INHIBITORS FOR THE TREATMENT OF FATTY LIVER DISEASE” (ETH Zurich, priority 2024, dated 2025).
Where a SMILES comes first, the peptide text is derived from it. The star is where a group is joined. Cbz = O=C(OCc1ccccc1)*

What was measured:
wild-type mice = assay: Glucose deprivation by 2-DG administration in mice; type: in vivo
Method: All animal experiments were permitted by the Veterinary office of the Canton of Zurich. Both female and male mice were used in the experiments, and they were housed 2-5 littermates per cage in ventilated cages at standard housing conditions (22°C, 12 h reversed light/dark cycle, dark phase starting at 7 am) with normal chow diet (18% proteins, 4.5% fibers, 4.5% fat, 6.3% ashes, Provimi Kliba SA) and water. Health status of all the mouse lines were monitored regularly based on FELASA guidelines. 8-10 weeks old C57BL/6N male mice were fasted for 24 h or injected with 2-DG (2 g/kg BW) to induce glucose deprivation for different durations. Female ROSA26-LSL-spCas9 mice (The Jackson Lab strain) were intravenously injected with AAV8-U6-Pi4kb gRNAs-TBG-Cre, AAV8-U6-Sacm1l gRNAs-TBG-Cre, AAV8-U6-Cu/7 gRNAs-TBG-Cre and AAV8-U6-Fbxw8 gRNAs-TBG-Cre virus pools to express six gRNAs targeting individual gene and CAS9 in the liver at a dose of 3×10^11 genome copies/mouse. Two weeks later, livers were harvested for protein and RNA extraction after 6 hours fasting. To determine liver TG levels under NCD feeding condition, 4 weeks after AAV administration livers were harvested after 6 hours fasting. Also 4 weeks after AAV administration, the liver specific Cul7&Fbxw8 double knockout mice were injected with 2-DG (2 g/kg BW) to induce 1 hour glucose deprivation prior to liver harvesting for protein extraction.
Adipose depots, liver pieces, differentiated iBAs, HepG2, HEK293T and HEK293-AAV cell types were homogenized in RIPA buffer (50 mM Tris-HCl pH 7.4, 150 mM NaCl, 2 mM EDTA, 1.0% Triton X100, 0.5% sodium deoxycholate) with protease inhibitors (Complete, Roche) and phosphatase inhibitors (Halt phosphatase inhibitor cocktail, ThermoFisher). The homogenates were centrifuged at 12,000×g for 10 min at 4°C to remove debris and collect whole cell extract (WCE). The concentration of WCE was determined by DC Protein Assay (Bio-Rad). After boiling the sample with Lämmeli buffer at 95°C for 5 min, equal amount of proteins was loaded and separated on 12% SDS-PAGE. The proteins were transferred to nitrocellulose membrane and blotted by ATGL (1:1000, Cell Signaling), CGI-58 (1:1000, Proteintech), phospho-HSL(Ser660) (1:1000, Cell Signaling), PLIN1 (1:1000, Cell Signaling), HSL (1:1000, Cell Signaling), γ-tubulin (1:10000, Sigma), FLAG (1:10000, Sigma; 1:1000, Cell Signaling), MGL (1:1000, Abcam), HA (1:1000, Cell signaling), FBXW8 (1:100, Santa Cruz; 1:1000, Sigma), CUL7 (1:100, Santa Cruz), HSP90 (1:1000, Cell Signaling), K48 polyubiquitin (1:1000, Cell signaling), PI4KB (1:1000, Sigma), SACM1L (1:1000, Sigma), AKT1 (1:1000, Cell Signaling), phospho-AKT1(Ser473) (1:1000, Cell Signaling), TGN46 (1:1000, Abcam), MAOA (1:1000, Abcam), PLIN2 (1:1000, Abcam), PMP70 (1:10000, Sigma), Calnexin (1:1000, Cell Signaling), ARF1 (1:1000, Invitrogen), GAPDH (1:1000, Cell Signaling), RAB7 (1:1000, Cell Signaling), alpha 1 Sodium Potassium ATPase (1:1000, Abcam), Cleaved Caspase-3 (1:1000, Cell Signaling), phospho-AMPKα (Thr172) (1:1000, Cell Signaling), AMPKα (1:1000, Cell Signaling) and GM130 (1:1000, Proteintech). The primay antibody signal was visualized by HRP-conjugated secondary antibodies (1:5000, Millipore) and the ImageQuant system (GE Healthcare Life Sciences).
For mouse insulin measurement, plasma was collected at different timepoints after 2-DG administration in wild type mice. 5 µl plasma sample was used to determine insulin levels via Ultra-sensitive mouse insulin ELISA kit (Crystal Chem, Cat# 90080) according to the manufacturer's protocol. The absorbance was measured via Synergy Gen5 Platereader at 450/630 nm. 2 µl plasma sample was used to determine glucose levels via Glucose Assay Kit (Sigma, MAK263) according to the manufacturer's protocol. The absorbance was read at 570 nm in Synergy Gen5 Platereader.
Plasma collected from mice under different conditions was used to determine levels of lipolysis and liver injury. […]

ATGL [1] = assay: ATGL protein quantification via immunoblot in HepG2 cell type; type: cell-based, human
Method: HepG2 cell type was cultured in RPMI medium with 10% FBS and 1% Pen/Strep on collagen-coated plates. Lipofectamine RNAiMAX reagent mediated siRNA (100 nM) was delivered to cells at the suspended state for 48 h. Different from HEK cells, it is not necessary to induce LDs via OA treatment in that there exist LDs in the HepG2 cell type at normal culture medium. The inventors treated HepG2 cells with 10 µM PF04620110 (DGAT1 inhibitor, Sigma) & PF-06424439 (DGAT2 inhibitor, Sigma) for 48 hours or with 5 µg/mL BFA (B5936, Sigma) for 6 hours to deplete LDs and intact Golgi in the HepG2 cell type respectively before glucose deprivation. To deprive glucose in the HepG2 cell type, we either added 2-DG at indicated concentrations to the culture medium or refresh cells with RPMI medium containing different glucose concentrations prepared from the same RPMI medium (Gibco, 11879020).
Adipose depots, liver pieces, differentiated iBAs, HepG2, HEK293T and HEK293-AAV cell types were homogenized in RIPA buffer (50 mM Tris-HCl pH 7.4, 150 mM NaCl, 2 mM EDTA, 1.0% Triton X100, 0.5% sodium deoxycholate) with protease inhibitors (Complete, Roche) and phosphatase inhibitors (Halt phosphatase inhibitor cocktail, ThermoFisher). […] The concentration of WCE was determined by DC Protein Assay (Bio-Rad). […]

ATGL [2] = assay: Blocking of proteasome mediated degradation and autophagy, cellular ATGL protein; type: cell-based; details: proteasome blocked by MG132
[3] = 1 hour after 2-DG administration

O=CC[C@@H](O)[C@H](O)[C@H](O)CO [2-DG, 2-Deoxy-D-glucose]
lipolysis (plasma FFA levels) (wild-type mice; 2-DG 2 g/kg BW, 1 h, 6 h and 12 h): significantly induced | ATGL levels in livers of wild-type mice (wild-type mice; 2-DG for 1 hour, no upregulation in Cul7 and Fbxw8 double knockout): upregulation | ATGL protein levels in the liver and iBAT (wild-type mice; 1 hour after 2-DG): increased | HSL phosphorylation in white adipose tissues (wild-type mice; [3]): upregulation | plasma insulin levels (wild-type mice; [3]): reduction | ATGL protein levels in the liver, iBAT, iWAT and gWAT (wild-type mice; longer glucose deprivation (6 h, 12 h after 2-DG)): further accumulation | ATGL protein abundance (ATGL [1]; HepG2, 2-DG treatment (50 mM), transcript levels unchanged): strongly induced

C[C@H]1CCC/C=C/[C@@H]2C[C@H](O)C[C@H]2[C@H](O)/C=C/C(=O)O1 [BFA, Brefeldin A]
intracellular ATGL levels upon glucose deprivation (ATGL [1]; HepG2 after treatment with BFA (5 µg/mL, 6 hours)): failed to upregulate

CC(C)C[C@@H](C=O)NC(=O)[C@H](CC(C)C)NC(=O)[C@H](CC(C)C)NC(=O)OCc1ccccc1 [MG132] (Cbz-Leu-Leu-Leu-aldehyde)
cellular ATGL protein (ATGL [2]): accumulation
